Reference: US12616672B2, “Methods for assessing risk of cardiovascular disease and methods and compounds for use in treating or preventing cardiovascular disease” (Queen Mary University of London, priority 2017, dated 2026)

Test system: peripheral blood leukocytes and platelets from CVD patients
Assay: CVD patient whole blood incubated with RvD2n-3 DPA or RvD5n-3 DPA for 45 min, flow cytometry
Assay type: cell-based, human
Conditions: no PAF
Experimental: FIG. 8: RvD2n-3 DPA and RvD5n-3 DPA reduce leukocyte activation in peripheral blood from CVD patients. Peripheral blood from patients diagnosed with cardiovascular disease (CVD) was collected at 9:00 h. […] Expression of CD62P on (A) neutrophils (B) monocytes and CD11b on (C) neutrophils and (D) monocytes was investigated using flow cytometry and fluorescently labelled antibodies.
Whole blood was incubated with lineage-specific markers for 45 min (4° C., in DPBS containing 0.02% BSA). The following anti-human antibodies were used: VioBlue-anti-CD41, PE-Cy5-anti-CD62P, Brilliant Violet 711-anti-CD11b, APC-Cy7-anti-CD16, Alexa Fluor 647-anti-CD14. After staining, red blood cells were lysed using Whole Blood Lysing Reagent Kit, according to the manufacturer's instructions. Data was collected using a flow cytometer and analysis was conducted using appropriate software.
In select experiments platelet adhesion molecule expression was assessed. Here platelets were incubated with fluorescently labelled mouse anti-human VioBlue-anti-CD41, PE-Cy5-anti-CD62P, PerCP/Cy5.5-anti-CD63 and FITC-ant-CD42b for 30 min at 4° C. Cells were then washed and fluorescence, staining evaluated using LSRFortessa cell analyser (BD Biosciences) and analysed using FlowJo software (Tree Star Inc., V10).

[1] = CVD patient whole blood, 0.1, 1, 10 nM, 45 min
[2] = CVD patient whole blood, 45 min

CC/C=C\C[C@H](O)/C=C/C=C\C/C=C\C=C\[C@@H](O)CCCCCC(=O)O [RvD5n-3 DPA, 7,17-trihydroxy-8E,10,13,15E,19Z-docosapentaenoic acid]
monocyte CD11b expression [1]: significantly reduced | neutrophil CD11b expression [1]: significantly reduced | platelet-monocyte aggregates [1]: reduction | platelet-neutrophil aggregates [1]: reduction | platelet CD62P expression [2]: downregulated | platelet CD63 expression [2]: downregulated | potency in reducing neutrophil-platelet and monocyte-platelet aggregates, compared (CVD patient whole blood): higher potency than RvD2n-3 DPA
